According to patent EP2746260A1, “Substituted [1,2,4]triazole and imidazole compounds” (BASF SE, priority 2012, dated 2014):

Tests used:
Pyricularia oryzae = type: cell-based; details: relative growth vs compound-free control (100%), 405 nm, 7 days after inoculation
Puccinia recondita = assay: Preventative control of brown rust on wheat (Puccrt P7), green house; type: in vivo; details: 16ppm spray, inoculated seven days after treatment, % diseased leaf area, untreated control 90
Experimental: (§1) The stock solution were prepared: a mixture of acetone and/or dimethylsulfoxide and the wetting agent/emulsifier Wettol, which is based on ethoxylated alkylphenoles, in a relation (volume) solvent-emulsifier of 99 to 1 was added to 25 mg of the compound to give a total of 5 ml. Water was then added to total volume of 100 ml. This stock solution was diluted with the described solvent-emulsifier-water mixture to the given concentration.
5. Preventative control of brown rust on wheat caused by Puccinia recondita (Puccrt P7)
The first two developed leaves of pot-grown wheat seedling were sprayed to run-off with an aqueous suspension, containing the concentration of active ingredient or their mixture as described below. Seven days later the plants were inoculated with spores of Puccinia recondita. To ensure the success the artificial inoculation, the plants were transferred to a humid chamber without light and a relative humidity of 95 to 99 % and 20 to 24· C for 24 h. Then the trial plants were cultivated for 6 days in a greenhouse chamber at 20-24 °C and a relative humidity between 65 and 70 %. The extent of fungal attack on the leaves was visually assessed as % diseased leaf area.

Botrytis cinerea [1] = assay: Long lasting control of Botrytis cinerea on leaves of green pepper (Botrci P7), green house; type: in vivo; details: 16ppm spray, inoculated 7 days after treatment, % diseased leaf area after 5 days, untreated control 90
Experimental: as §1
3. Long lasting control of Botrytis cinerea on leaves of green pepper (Botrci P7)
Young seedlings of green pepper were grown in pots to the 4 to 5 leaf stage. These plants were sprayed to run-off with an aqueous suspension, containing the concentration of active ingredient or their mixture mentioned in the table below. The plants were then cultivated in the greenhouse for 7 days and then inoculated with an aqueous biomalt solution containing the spore suspension of Botrytis cinerea. Then the plants were immediately transferred to a humid chamber. After 5 days at 22 to 24· C and a relative humidity close to 100 % the extent of fungal attack on the leaves was visually assessed as % diseased leaf area.

Botrytis cinerea [2] = assay: Activity against the grey mold in the microtiterplate test (Botrci); type: cell-based; details: relative growth vs compound-free control (100%), 405 nm, 7 days after inoculation
Phakopsora pachyrhizi = assay: Protective control of soy bean rust on soy beans (Phakpa P1), green house; type: in vivo; details: 150ppm spray, inoculated 1 day after treatment, % diseased leaf area, untreated control 70
Botrytis cinerea [3] = assay: Preventative fungicidal control of Botrytis cinerea on leaves of green pepper (Botrci P1), green house; type: in vivo; details: 150ppm spray, inoculated next day, % diseased leaf area after 5 days, untreated control 100
Experimental: as §1
2. Preventative fungicidal control of Botrytis cinerea on leaves of green pepper (Botrci P1)
Young seedlings of green pepper were grown in pots to the 4 to 5 leaf stage. These plants were sprayed to run-off with an aqueous suspension, containing the concentration of active ingredient or their mixture mentioned in the table below. The next day the plants were inoculated with an aqueous biomalt solution containing the spore suspension of Botrytis cinerea. Then the plants were immediately transferred to a humid chamber. After 5 days at 22 to 24· C and a relative humidity close to 100 % the extent of fungal attack on the leaves was visually assessed as % diseased leaf area.

Septoria tritici = assay: Preventative control of leaf blotch on wheat (Septtr P1), green house; type: in vivo; details: 150ppm spray, inoculated following day, % diseased leaf area after 4 weeks, untreated control 100
Experimental: as §1
4. Preventative control of leaf blotch on wheat caused by Septoria tritici (Septtr P1)
Leaves of pot-grown wheat seedling were sprayed to run-off with an aqueous suspension of the active compound or their mixture, prepared as described. The plants were allowed to air-dry. At the following day the plants were inoculated with an aqueous spore suspension of Septoria tritici. Then the trial plants were immediately transferred to a humid chamber at 18-22°C and a relative humidity close to 100 %. After 4 days the plants were transferred to a chamber with 18-22°C and a relative humidity close to 70 %. After 4 weeks the extent of fungal attack on the leaves was visually assessed as % diseased leaf area.

Compound	Growth (%) at 8ppm Pyrior (Pyricularia oryzae)	Growth (%) at 31ppm Botrci (Botrytis cinerea [2])	Disease (%) at 150ppm Phakpa P1 (Phakopsora pachyrhizi)	Growth (%) at 31ppm Pyrior (Pyricularia oryzae)	other results
OC(Cc1ccccc1Cl)(Cn1ncnc1S)C1(Cl)CC1 (stereo not shown) [Comparative 1, reference compound]	33%				
OC(Cc1ccccc1Cl)(Cn1cncn1)C1(Cl)CC1 (stereo not shown) [Comparative 2, reference compound]					Disease (%) at 16ppm Puccrt P7 (Puccinia recondita): 50%; Disease (%) at 16ppm Botrci P7 (Botrytis cinerea [1]): 30%
CC(c1ccccc1Cl)C(O)(C(C)n1cncn1)C1(Cl)CC1 (stereo not shown) [Compound I-1, 3-(1-Chlorocyclopropyl)-2-(2-chlorophenyl)-4-(1,2,4-triazol-1-yl)pentan-3-ol]		19%	10%	0%	
CC(n1cncn1)C(O)(Cc1ccccc1Cl)C1(Cl)CC1 (stereo not shown) [Compound I-3]		1%	0%	0%	Disease (%) at 150ppm Botrci P1 (Botrytis cinerea [3]): 0%; Disease (%) at 150ppm Septtr P1 (Septoria tritici): 3%; Disease (%) at 16ppm Puccrt P7 (Puccinia recondita): 3%; Disease (%) at 16ppm Botrci P7 (Botrytis cinerea [1]): 15%
CC(n1cncn1)C(O)(Cc1ccc(Oc2ccc(Cl)cc2)cc1Cl)C1(Cl)CC1 (stereo not shown) [Compound I-4]			15%	6%	
CC(n1cncn1)C(O)(Cc1ccc(-c2ccc(Cl)cc2)cc1Cl)C1(Cl)CC1 (stereo not shown) [Compound I-5]				10%	
CC(n1ncnc1S)C(O)(Cc1ccccc1Cl)C1(Cl)CC1 (stereo not shown) [Compound I-6]	6%		0%	0%	
CC(c1ccccc1Cl)C(O)(C(C)n1ncnc1S)C1(Cl)CC1 (stereo not shown) [Compound I-7]	0%	0%		0%	
